Measurements: ChEMBL document CHEMBL1149625, “Rational design of 6-(2,4-diaminopyrimidinyl)-1,4-benzoxazin-3-ones as small molecule renin inhibitors” (Bioorg Med Chem, 2007)
In brackets after ≈: the same amount, converted by molar mass. Values belong to the molecule of their own block, whether it stands above or below them.

Assays:
physchem = details: aqueous, pH 6.5, Solubility
in vivo [1] = details: rat, po, 10 mg/kg
in vivo [2] = details: rat, iv, 1 mg/kg
in vivo [3] = details: rat, po, 10 mg/kg; remark: listed apart in the source
[4] = Bioavailability in rat at 5 mg/kg, po; type: ADME, organism-based; details: in vivo
[5] = Cmax in rat at 1 mg/kg, iv or 5 mg/kg, po; type: ADME, organism-based; details: in vivo
[6] = Volume of distribution at steady state in rat at 1 mg/kg, iv or 5 mg/kg, po; type: ADME, organism-based; details: in vivo, read-out: Vdss
[7] = Volume of distribution at steady state in rat at […], iv or […], po; type: ADME, organism-based; details: in vivo, read-out: Vdss
[8] = Cmax in rat at […], iv or […], po; type: ADME, organism-based; details: in vivo
[9] = Bioavailability in rat at […], po; type: ADME, organism-based; details: in vivo
[10] = buffer, pH 6.5
[11] = Bioavailability in dog at 5 mg/kg, po; type: ADME, organism-based, Canis lupus familiaris; details: in vivo

SMILES: CCc1nc(N)nc(N)c1-c1ccc2c(c1)N(CCNC(C)=O)C(=O)C(C)(c1cccc(C(F)(F)F)c1)O2 (racemic)
solubility (physchem): 12 µg/mL (≈ 22.7 µM)

SMILES: CCc1nc(N)nc(N)c1-c1ccc2c(c1)N(CCNS(C)(=O)=O)C(=O)C(C)(c1cc(F)cc(F)c1)O2 (stereo not given)
solubility (physchem): 200 µg/mL (≈ 376 µM)

SMILES: CCc1nc(N)nc(N)c1-c1ccc2c(c1)N(CCNC(C)=O)C(=O)C(C)(c1cc(F)cc(F)c1)O2 (stereo in doubt; 26)
bioavailability [4]: 8%
solubility (physchem): 95 µg/mL (≈ 191 µM)
Cmax [5]: 220 ng/mL
Vd [6]: 2.1 L/kg

SMILES: CCc1nc(N)nc(N)c1-c1ccc2c(c1)N(CCNC(C)=O)C(=O)C(C)(c1cccc(Cl)c1)O2 (racemic)
solubility (physchem): 133 µg/mL (≈ 269 µM)

SMILES: CCc1nc(N)nc(N)c1-c1ccc2c(c1)N(CCCOC)C(=O)C(C)(CC)O2 (stereo not given)
solubility (physchem): 54 µg/mL (≈ 135 µM)

SMILES: CCc1nc(N)nc(N)c1-c1ccc2c(c1)N(CCNC(=O)CO)C(=O)C(C)(c1cc(F)cc(F)c1)O2 (stereo not given)
solubility (physchem): 59 µg/mL (≈ 115 µM)
Vd [6]: 2.9 L/kg

SMILES: CCc1nc(N)nc(N)c1-c1ccc2c(c1)N(CCNC(C)=O)C(=O)C1(CC1)O2
solubility (physchem): 24 µg/mL (≈ 60.5 µM)

SMILES: CCc1nc(N)nc(N)c1-c1ccc2c(c1)N(CCNC(C)=O)C(=O)[C@@](C)(c1ccccc1)O2
solubility (physchem): 40 µg/mL (≈ 86.9 µM)

SMILES: CCc1nc(N)nc(N)c1-c1ccc2c(c1)N(CCCOC)C(=O)C(CC)(CC)O2
solubility (physchem): 16 µg/mL (≈ 38.7 µM)

SMILES: CCNC(=O)CN1C(=O)C(C)(c2cc(F)cc(F)c2)Oc2ccc(-c3c(N)nc(N)nc3CC)cc21 (stereo not given)
Vd [7]: 3.1 L/kg
Cmax [8]: 60 ng/mL
solubility (physchem): 89 µg/mL (≈ 179 µM)
bioavailability [9]: 14%

SMILES: CCc1nc(N)nc(N)c1-c1ccc2c(c1)N(CCC(=O)NC)C(=O)C(C)(c1cc(F)cc(F)c1)O2 (stereo not given)
solubility (physchem): 133 µg/mL (≈ 268 µM)
Vd [6]: 2.1 L/kg

SMILES: CCc1nc(N)nc(N)c1-c1ccc2c(c1)N(CCNC(C)=O)C(=O)C(C)(c1ccc(Cl)cc1)O2 (racemic)
solubility (physchem): 12 µg/mL (≈ 24.2 µM)

SMILES: CCc1nc(N)nc(N)c1-c1ccc2c(c1)N(CCNC(C)=O)C(=O)C(C)(c1cc(F)cc(F)c1)O2 (racemic)
solubility [10]: 133 µg/mL (≈ 268 µM)

SMILES: CCc1nc(N)nc(N)c1-c1ccc2c(c1)N(CCNC(C)=O)C(=O)[C@](C)(c1ccccc1)O2
solubility (physchem): 119 µg/mL (≈ 258 µM)

SMILES: CCc1nc(N)nc(N)c1-c1ccc2c(c1)N(CCNC(C)=O)C(=O)C(C)(C(F)(F)F)O2 (stereo not given)
solubility (physchem): 200 µg/mL (≈ 442 µM)

SMILES: CCc1nc(N)nc(N)c1-c1ccc2c(c1)N(CCCC(F)(F)F)C(=O)[C@](C)(c1cc(F)cc(F)c1)O2
Cmax (in vivo [1]): 380 ng/mL
Vd (in vivo [2]): 5.7 L/kg
bioavailability (in vivo [3]): 74%
bioavailability [11]: 19%

SMILES: CCc1nc(N)nc(N)c1-c1ccc2c(c1)N(CCNC(=O)OC)C(=O)C(C)(c1cc(F)cc(F)c1)O2 (stereo not given)
Cmax (in vivo [1]): 280 ng/mL
Vd (in vivo [2]): 3.5 L/kg
bioavailability (in vivo [3]): 34%

Results, then the molecule that gave them:

solubility (physchem): 5.2 µg/mL (≈ 9.97 µM)
Cmax (in vivo [1]): 160 ng/mL
Vd (in vivo [2]): 5.1 L/kg
bioavailability (in vivo [3]): 12%
SMILES: CCc1nc(N)nc(N)c1-c1ccc2c(c1)N(CCCC(F)(F)F)C(=O)C(C)(c1cc(F)cc(F)c1)O2 (racemic)

solubility (physchem): 34 µg/mL (≈ 88.2 µM)
SMILES: CCc1nc(N)nc(N)c1-c1ccc2c(c1)N(CCCOC)C(=O)C(C)(C)O2

solubility (physchem): 3.5 µg/mL (≈ 7.31 µM)
Cmax (in vivo [1]): 237 ng/mL
Vd (in vivo [2]): 1.9 L/kg
bioavailability (in vivo [3]): 12%
SMILES: CCc1nc(N)nc(N)c1-c1ccc2c(c1)N(CCCC#N)C(=O)C(C)(c1cc(F)cc(F)c1)O2 (stereo not given)

Vd [7]: 2 L/kg
Cmax [8]: < 5 ng/mL
solubility (physchem): 59 µg/mL (≈ 119 µM)
bioavailability [9]: 0%
SMILES: CCOCCCN1C(=O)C(C)(c2cc(F)cc(F)c2)Oc2ccc(-c3c(N)nc(N)nc3CC)cc21 (stereo not given)

bioavailability [4]: 44%
solubility (physchem): 28 µg/mL (≈ 59.6 µM)
Cmax [5]: 180 ng/mL
Vd [6]: 3.1 L/kg
SMILES: CCc1nc(N)nc(N)c1-c1ccc2c(c1)N(CCCO)C(=O)C(C)(c1cc(F)cc(F)c1)O2 (stereo not given)

solubility (physchem): 2.3 µg/mL (≈ 4.63 µM)
SMILES: CCc1nc(N)nc(N)c1-c1ccc2c(c1)N(CCNC(C)=O)C(=O)C(C)(c1cc(F)ccc1F)O2 (racemic)

solubility (physchem): 2.6 µg/mL (≈ 5.23 µM)
SMILES: CCc1nc(N)nc(N)c1-c1ccc2c(c1)N(CCCOC)C(=O)C(CC)(c1cc(F)cc(F)c1)O2 (racemic)

solubility (physchem): 7.8 µg/mL (≈ 14.5 µM)
Cmax (in vivo [1]): 200 ng/mL
Vd (in vivo [2]): 6.3 L/kg
bioavailability (in vivo [3]): 28%
SMILES: CCc1nc(N)nc(N)c1-c1ccc2c(c1)N(CCCOC(F)(F)F)C(=O)C(C)(c1cc(F)cc(F)c1)O2 (stereo not given)

solubility (physchem): 59 µg/mL (≈ 122 µM)
Cmax (in vivo [1]): 186 ng/mL
Vd (in vivo [2]): 2.3 L/kg
bioavailability (in vivo [3]): 7%
SMILES: CCc1nc(N)nc(N)c1-c1ccc2c(c1)N(CCCCO)C(=O)C(C)(c1cc(F)cc(F)c1)O2 (stereo not given)

bioavailability [4]: 0.4%
Cmax [5]: 23 ng/mL
solubility [10]: 87 µg/mL (≈ 180 µM)
Vd [6]: 4.5 L/kg
SMILES: CCc1nc(N)nc(N)c1-c1ccc2c(c1)N(CCCOC)C(=O)C(C)(c1cc(F)cc(F)c1)O2 (racemic)

solubility (physchem): 89 µg/mL (≈ 195 µM)
Vd (in vivo [2]): 3.3 L/kg
SMILES: CCc1nc(N)nc(N)c1-c1ccc2c(c1)N(CCO)C(=O)C(C)(c1cc(F)cc(F)c1)O2 (stereo not given)

solubility (physchem): 87 µg/mL (≈ 180 µM)
SMILES: CCc1nc(N)nc(N)c1-c1ccc2c(c1)N(CCCOC)C(=O)C(C)(c1cc(F)cc(F)c1)O2 (stereo in doubt; 25)

solubility (physchem): 13 µg/mL (≈ 26.9 µM)
SMILES: CCc1nc(N)nc(N)c1-c1ccc2c(c1)N(CCCOC)C(=O)C(C)(c1ccc(F)c(F)c1)O2 (racemic)
